# From ChEMBL document CHEMBL3425412, “Additional sesterterpenes and a nortriterpene saponin from the sponge Clathria gombawuiensis” (2015)
# Assays:
# Assay type in all cases: functional
# A549 = assay: Cytotoxicity against human A549 cells; conditions: read-out: LC50 (the source's name)
# K562 = assay: Cytotoxicity against human K562 cells; conditions: read-out: LC50 (the source's name)
# Staphylococcus aureus = assay: Antimicrobial activity against Staphylococcus aureus ATCC 6538p after 24 hrs by twofold dilution method
# Proteus hauseri = assay: Antimicrobial activity against Proteus hauseri NBRC 3851 after 24 hrs by twofold dilution method; conditions: NBRC 3851, 24 h
# Bacillus subtilis = assay: Antimicrobial activity against Bacillus subtilis ATCC 6633 after 24 hrs by twofold dilution method; conditions: ATCC 6633, 24 h
# Kocuria rhizophila = assay: Antimicrobial activity against Kocuria rhizophila NBRC 12708 after 24 hrs by twofold dilution method; conditions: NBRC 12708, 24 h
# Salmonella enterica = assay: Antimicrobial activity against Salmonella enterica ATCC 14028 after 24 hrs by twofold dilution method; conditions: ATCC 14028, 24 h
Structure (SMILES),CC50 (A549),CC50 (K562),MIC (Staphylococcus aureus),MIC (Proteus hauseri),MIC (Bacillus subtilis),MIC (Kocuria rhizophila),MIC (Salmonella enterica)
CC1=CC(=O)[C@@H]2[C@@]3(C)CCCC(C)(C)[C@@H]3[C@@H](O)C[C@]2(C)c2c1ccc(C)c2O,4.7 µM,5.4 µM,> 100 µg/mL,> 100 µg/mL,,,
C=C1/C=C\[C@@H]2[C@@]3(C)CCCC(C)(C)[C@@H]3[C@H](O)C[C@@]2(C)O[C@@H]2C=C(C)C(=O)C[C@H]12,3.9 µM,4.5 µM,> 100 µg/mL,> 100 µg/mL,,,
CC(=O)[C@H]1CC[C@@]2(C)C3=C(CC[C@]12C)[C@@]1(C)CCC(O[C@@H]2O[C@H](C(=O)O)[C@@H](O)[C@H](OS(=O)(=O)[O-])[C@H]2O)C(C)(C)[C@@H]1CC3.[Na+] (some centres undefined),2.1 µM,1.8 µM,> 100 µg/mL,3.1 µg/mL,1.6 µg/mL,> 100 µg/mL,> 100 µg/mL
COc1c(C)ccc2c1[C@@]1(C)C[C@H](O)[C@H]3C(C)(C)CCC[C@]3(C)[C@H]1C(=O)C=C2C,> 100 µM,> 100 µM,,,,,
CC1(C)S[C@@H]2[C@H](NC(=O)[C@H](N)c3ccccc3)C(=O)N2[C@H]1C(=O)O [AMPICILLIN],,,0.4 µg/mL,0.4 µg/mL,0.4 µg/mL,0.4 µg/mL,0.8 µg/mL
COc1cccc2c1C(=O)c1c(O)c3c(c(O)c1C2=O)C[C@@](O)(C(=O)CO)C[C@@H]3O[C@H]1C[C@H](N)[C@H](O)[C@H](C)O1 [DOXORUBICIN],1.1 µM,1.5 µM,,,,,
